Laboratory results from patent US20190381014A1, “ISOQUINOLINONE COMPOUNDS AND USE THEREOF IN PREPARATION OF ANTIVIRAL DRUGS” (Ginkgo Pharma Co., Ltd., priority 2016, published 2019).
pEC50: −log10 of the molar value.

Legend:
[1] = system: HBsAg; assay: HBsAg inhibition in HepG2.2.15 culture supernatant (ELISA); type: cell-based, HBV; settings: Hepatitis B virus, HepG2.2.15, 192 h, read-out: Activity in HBsAg inhibition, EC50
Method: Test method: HepG2.2.15 cell line was seeded into 96-well plates at 1.5×10^4 cells/well. On the following day, the cells were treated with a three-fold serial dilution series of the compounds at eight concentration points, and 2 duplicate wells were determined in parallel. The final DMSO concentration in the culture solution was 0.5%. On the fifth day, the culture solution was replaced with fresh solution containing the compounds. On the eighth day, the culture supernatant was collected and the HBsAg in the culture supernatant was detected by ELISA. The percent inhibition was calculated with respect to the blank control.

[2] = Rat PK study (single IV and PO dose, plasma LC-MS/MS); type: in vivo, S-D rats; settings: for F / AUC(0-t) / clearance / half-life / Vd / Cmax / Tmax: S-D rats; for F: PO 10 mg/kg vs IV 2 mg/kg; for AUC(0-t) / clearance / half-life / Vd / Cmax / Tmax: Sprague-Dawley (S-D), rat, plasma; for Vd: read-out: Vdss; for PK properties (overall judgement): combining PK data of IV and PO
Method: Preparation of intravenous injection formulation: accurately weighing 2-3 mg of a sample, adding appropriate amount of N,N-dimethylacetamide (DMA), vortex oscillating to completely dissolve the solid matter; adding an appropriate volume of 30% Solutol HS-15 aqueous solution, vortex oscillating and then adding saline, so that DMA: 30% Solutol HS-15:saline=20:20:60 (v/v/v), vortex oscillating the liquid to mix the liquid evenly, and filtering to obtain a pharmaceutical preparation of a concentration of 0.4 mg·mL^−1.
Preparation of oral formulation: accurately weighing 10 mg of a sample, adding an appropriate volume of 0.5% CMC-Na aqueous solution, vortex oscillating and ultrasounding to mix the liquid evenly to obtain a pharmaceutical preparation of a concentration of 1 mg·mL^−1.
The formulations were freshly prepared on the day of administration, and samples were reserved and taken for the determination of the actual concentration.
S-D rats of Group A were given a single intravenous injection (IV) of 2 mg·kg^−1, respectively; S-D rats of Group B were given a single gavage administration (PO) of 10 mg·kg^−1, respectively. Approximately 0.15 mL of blood sample will was collected via jugular vein into EDTA-K2 tubes at the designated time points of pre-dose, and 5 min (IV only), 15 min, 30 min, 1 h, 2 h, 4 h, 8 h, 12 h and 24 h post dose. All of the whole blood samples were centrifuged for 10 min (at 5500 rpm) to obtain plasma samples, which were stored at a refrigerator below −30˜−10° C. Concentrations of compounds in the plasma samples were analyzed using a LC-MS/MS method. The pharmacokinetic parameters were calculated using non-compartment model in Pharsight Phoenix 7.0 software. See Tables 2a and 2b for the results.

Structure (SMILES)	pEC50 [1]	F [2] [%]	AUC(0-t) ([2]; IV 2 mg/kg) [ng·h/mL]	clearance ([2]; IV 2 mg/kg) [mL/min/kg]	half-life ([2]; IV 2 mg/kg) [h]	Vd ([2]; IV 2 mg/kg) [L/kg]	AUC(0-t) ([2]; PO 10 mg/kg) [ng·h/mL]	Cmax ([2]; PO 10 mg/kg) [ng/mL]	Tmax ([2]; PO 10 mg/kg) [h]	half-life ([2]; PO 10 mg/kg) [h]	PK properties (overall judgement) [2]
COCCCOc1cc2c(cc1OC)-c1cc(=O)c(C(=O)O)cn1[C@H](C(C)C)C2 [A, reference compound]	8.39	21.5	1610	20.8	0.94	1.17	1760	475	2.2	1.5	–
COc1cc2c(cc1O[C@@H]1CCOC1)C[C@@H](C(C)C)n1cc(C(=O)O)c(=O)cc1-2 [Compound I-2, (S)-6-isopropyl-10-methoxy-2-oxo-9-(((R)-tetrahydrofuran-3-yl)oxy)-6,7-dihydro-2H-pyrido[2,1-α]isoquinoline-3-carboxylic acid]	8.74	18.9	1800	18.6	1.8	1.51	1690	437	1.2	1.6	good PK properties
COc1cc2c(cc1O[C@H]1C[C@H](OC)C1)C[C@@H](C(C)C)n1cc(C(=O)O)c(=O)cc1-2 [Compound I-5, (S)-6-isopropyl-10-methoxy-9-((1R,3S)-3-methoxycyclobutoxy)-2-oxo-6,7-dihydro-2H-pyrido[2,1-α]isoquinoline-3-carboxylic acid]	8.79	37.7	2940	11.3	0.98	0.858	5500	1340	0.5	1.7	good PK properties
COCC1(COc2cc3c(cc2OC)-c2cc(=O)c(C(=O)O)cn2[C@H](C(C)C)C3)CC1 [Compound I-6, (S)-6-isopropyl-10-methoxy-9-((1-(methoxymethyl)cyclopropyl)methoxy)-2-oxo-6,7-dihydro-2H-pyrido[2,1-α]isoquinoline-3-carboxylic acid]	8.50	45.8	1020	33.6	0.71	1.74	2310	1490	0.58	1.9	good PK properties
COCC1(COc2cc3c(cc2OC)-c2cc(=O)c(C(=O)O)cn2[C@H](C(C)C)C3)COC1 [Compound I-7, (S)-6-isopropyl-10-methoxy-9-((3-(methoxymethyl)oxetan-3-yl)methoxy)-2-oxo-6,7-dihydro-2H-pyrido[2,1-α]isoquinoline-3-carboxylic acid]	8.42	8.1	1180	28.8	0.67	1.39	470	103	1	1.4	–
COc1cc2c(cc1OCC1CC(OC)C1)C[C@@H](C(C)C)n1cc(C(=O)O)c(=O)cc1-2 (stereo partly drawn) [Compound I-8, (S)-6-isopropyl-10-methoxy-9-((3-methoxycyclobutyl)methoxy)-2-oxo-6,7-dihydro-2H-pyrido[2,1-α]isoquinoline-3-carboxylic acid]	8.81	27.1	2150	15.7	0.89	1.05	3030	739	0.92	1.3	good PK properties
COc1cc2c(cc1OCCCC(C)=O)C[C@@H](C(C)C)n1cc(C(=O)O)c(=O)cc1-2 [Compound I-9, (S)-6-isopropyl-10-methoxy-2-oxo-9-((4-oxopentyl)oxy)-6,7-dihydro-2H-pyrido[2,1-α]isoquinoline-3-carboxylic acid]	8.49	4.3	504	65.9	0.29	0.942	105	79.9	0.33	1.8	–
COc1cc2c(cc1OC1CCCC1)C[C@@H](C(C)C)n1cc(C(=O)O)c(=O)cc1-2 [Compound I-10, (S)-9-(cyclopentyloxy)-6-isopropyl-10-methoxy-2-oxo-6,7-dihydro-2H-pyrido[2,1-α]isoquinoline-3-carboxylic acid]	8.52	11.7	1490	22.7	0.88	1.41	869	265	1	1.3	–
COc1cc2c(cc1C#CC1CC1)C[C@@H](C(C)C)n1cc(C(=O)O)c(=O)cc1-2 [Compound I-11, (S)-9-(cyclopropylethynyl)-6-isopropyl-10-methoxy-2-oxo-6,7-dihydro-2H-pyrido[2,1-α] isoquinoline-3-carboxylic acid]	8.59	11.5	946	35.9	0.58	1.37	461	119	1.8	3.2	–
COc1cc2c(cc1O[C@H]1C[C@@H](OC)C1)C[C@@H](C(C)C)n1cc(C(=O)O)c(=O)cc1-2 [Compound I-19, (S)-6-isopropyl-10-methoxy-9-((1 s, 3R)-3-methoxycyclobutoxy)-2-oxo-6,7-dihydro-2H-pyrido[2,1-α]isoquinoline-3-carboxylic acid]	8.54	–	–	–	–	–	–	–	–	–	–
COc1cc2c(cc1OC1CCC1)C[C@@H](C(C)C)n1cc(C(=O)O)c(=O)cc1-2 [Compound I-20, (S)-9-cyclobutoxy-6-isopropyl-10-methoxy-2-oxo-6,7-dihydro-2H-pyrido[2,1-α]isoquinoline-3-carboxylic acid]	8.59	–	–	–	–	–	–	–	–	–	–
